Patent US20160097044A1, “Antimicrobial Enzyme Fusions Reduce Resistance and Kill Intracellular Staphylococcus aureus” (The United States of America, as Represented by the …, priority 2014, published 2016)

What was measured:
[1] = tested on: intracellular S. aureus strain UAMS-1 in murine calvaria; assay: Ex vivo neonatal mouse calvaria intracellular eradication; format: cell-based
Experimental: (§1) Neonatal mouse whole calvaria were treated for 4 hours with chimeric peptidoglycan hydrolases or buffer alone, 24 hours post inoculation with GFP-expressing S. aureus. Calvaria were embedded in freeze media, sectioned, and subjected to fluorescence imaging. The image shown is a representative figure for triplicate sections of three separate calvaria. FIG. 8b depicts fluorescence intensity from these sections measured in ImageJ and defined as arbitrary fluorescence standardized to the untreated control. Error bars represent SEM of four replicate experiments. FIG. 8c depicts ex-vivo intracellular S. aureus eradication. Infected calvaria were homogenized and CFU were counted post treatment. Error bars represent SEM. FIG. 8d depicts a murine model of staphylococcal osteomyelitis. C57BL/6J mice were anesthetized and their femurs were surgically exposed. A trough was drilled through the bone cortex and the damaged bone sites were inoculated with 1×10^3 CFU S. aureus in agarose beads. After 24 hours, mice were treated (i.m. to site of infection) twice in a 24 h period with PBS or 5 mg/kg of triple fusion K-L or K-L-PTD1. The femurs were removed, homogenized, and plated to quantify the bacterial load. Bars indicate the average CFU recovered (N=6). […] Asterisks represent statistical significance as determined by one-way ANOVA followed by Tukey's posthoc test.
To examine the intracellular uptake and eradication in murine osteoblast-containing tissue samples, both ex vivo calvaria (skull cap), and in vivo femur injury models were tested. Calvaria were isolated from neonatal mice and infected with UAMS-1 strain of S. aureus (1×10^6 bacteria/calvaria) for 2 h at 37° C. in osteoblast growth medium in the absence of antibiotics. Following 3× washes with PBS, calvaria were exposed to 50 μg/ml of gentamicin for 15 min to kill extracellular bacteria and further cultured in gentamicin containing osteoblast growth media. After 24 h later, calvaria were treated with peptidoglycan hydrolases (5 μg/ml) or gentamicin only control for 2 h. Lysis buffer containing 0.05% trypsin and 0.25% Triton X-100 was used to homogenize the calvaria, the homogenates were quantitatively plated on LB agar plates, and the CFU were enumerated after 24 h. The data represents triplicate determinants of two separate experiments.
Calvaria were isolated, and infected as described above using GFP-tagged UAMS-1 strain of S. aureus. Two hours post-infection, calvaria were washed with PBS followed by a 15 minutes treatment with 50 μg/ml gentamicin to kill extracellular bacteria. 24 hours post-infection, calvaria were treated with 5 μg/ml peptidoglycan hydrolases or gentamicin only control for two hours and embedded in Tissue-Tek O.C.T compound (Sakura, Torrance, Calif.). […]

[2] = tested on: S. aureus; assay: Murine model of staphylococcal osteomyelitis (femur); format: in vivo, C57BL/6J mice; details: 5 mg/kg i.m. at site of infection, twice in 24 h, N=6
Experimental: as §1, with “A trough was drilled through the bone cortex and the damaged bone sites were inoculated with 1×10^3 CFU S. aureus in agarose beads. After 24 hours, mice were treated (i.m. to site of infection) twice in a 24 h period with PBS or 5 mg/kg of triple fusion K-L or K-L-PTD1.” left out, “load.” for “load. Bars indicate the average CFU recovered (N=6).”
We utilized a previously described (Marriott, supra) murine model of staphylococcal osteomyelitis that reproduces the clinical and gross pathological phases of inflammatory bone diseases, such as human post-traumatic osteomyelitis. […] Asterisks represent statistical significance as determined by one-way ANOVA followed by Tukey's posthoc test.

[3] = bovine, in vivo; cited from earlier work
[4] = tested on: TNFα; assay: Murine model of mastitis, TNFα response; format: in vivo, C57BL6/SJL mice; details: single 1.25 nmoles intramammary infusion, after challenge
Experimental: FIG. 6a depicts the specific activity of peptidoglycan hydrolase fusion constructs in vitro in a turbidity reduction assay with S. aureus Newbould 305 resuspended in lysis buffer to an OD600nm of 1.0 and treated with 1 μM final concentrations of each peptidoglycan hydrolase. The maximum specific activity for three experiments are represented as an average with SEM error bars. FIG. 6b depicts the bacterial burden in mice with mastitis treated with recombinant peptidoglycan hydrolases. Colony Forming Units (CFUs) from infected murine mammary glands following a single treatment with 50 μl of 25 μM peptidoglycan hydrolase (1.25 nmol). Each data point represents the average of duplicate bacterial platings. The horizontal bars represent the average CFU/mg for each group. FIG. 6c illustrates the TNFα response in mice with mastitis that were treated with peptidoglycan hydrolases. Data represents a minimum of 7 measurements in duplicate. Log TNFα was used for statistical analysis. Single asterisks indicate a significant difference from buffer control (p<0.05); double asterisks indicate a significant difference from the parental enzyme (p<0.05). […]
Statistical analysis: The variables were analyzed as two-factor mixed models with Treatment as the factor and Mouse as random Blocks. […]

| Substance | live bacteria (CFU) recovered from calvaria ([1]; 5 μg/ml for 2 h, homogenized calvaria) | elimination of GFP-labeled intracellular S. aureus (fluorescence) ([1]; 5 μg/ml, 24 hours post-infection, sectioned calvaria) | bacterial load in femur compared to no treatment [2] | treatments after which specific antibodies were detectable [3] | reduction of TNFα concentration in the mammary tissue [4] [fold] |
| --- | --- | --- | --- | --- | --- |
| K-L: both LysK lytic domains fused to the N-terminus of lysostaphin; SEQ ID NO:5, protein SEQ ID NO:6 | able to reduce the number of live bacteria recovered from sectioned calvaria | able to eliminate GFP-labeled intracellular S. aureus strain UAMS-1 from murine calvaria | significantly reduced bacterial load as compared to no treatment |  |  |
| L: 247 amino acid mature (secreted) lysostaphin, staphylolytic bacteriocin, C-terminal His6 tag; SEQ ID NO:1 [reference compound] |  |  |  | 18-21 treatments | > 6 |
